Source: paper PMC6817585, “Simultaneous Determination of Five Alkaloids by HPLC-MS/MS Combined With Micro-SPE in Rat Plasma and Its Application to Pharmacokinetics After Oral Administration of Lotus Leaf Extract” (Frontiers in Pharmacology, 2019)
Where two headings read alike, the source gives them in different places. Values belong to the compound of their own block, whether it stands above or below them.

Tests used:
[1] = Pharmacokinetics of five alkaloids in rat plasma after oral administration of lotus leaf extract; assay type: in vivo, Male Sprague-Dawley rats
Description: All analyses were performed on Agilent 1200 HPLC system (Agilent Corporation, USA) and API 3200 triple-quadrupole mass spectrometer (Concord, Ontario, Canada) in multiple-reaction monitoring (MRM) with positive ionization mode. Acetonitrile (A) and formic acid aqueous solution (B) (0.1%, v/v) is used to separate the analytes on Eclipse plus C18 column (4.6 mm × 100 mm, 1.8 µm) with a guard C18 column (2.1 mm × 12.5 mm, 5 µm). The gradient of elution is as follows: 5%–60% A at 0 to 4 min, 60%–70% A at 4 to 5 min, 70%–93% A at 5 to 7 min, 93%–94% A at 7 to 11 min, 94%–5% A at 11 to 12 min, and 5%–5% A at 12 to 17 min. The flow rate and injection volume are 0.3 ml·min^-1 and 5 µl, respectively. The main parameters of ion source including the ion spray voltage, the curtain gas, and temperature are set at 5000 V, 35 psi, and 450°C, respectively.
The real plasma sample (100 µl) and IS solution (10 µl) were vortex-mixed for 1 min. The sample was carried out with the SPE column (Cleanert PEP-2, 40–60 µm, 60 Å, 10 mg/1 ml; Phenomenex, Torrance, CA, USA). First, SPE columns were activated by 50% methanol in water (1 ml) and 0.1% formic acid in water (1 ml) and were used to activate the SPE column in sequence. Second, columns were washed with 200 µl methanol (20%, v/v) and eluted with acetonitrile (400 µl) after the plasma samples were added. Finally, the eluent was centrifuged for 10 min with 14,000 rpm. Then final solutions were injected into the HPLC-MS/MS and analyzed.
The pharmacokinetic study was conducted in accordance with the Guidelines for the Care and Use of Laboratory Animals by the US National Institutes of Health and approved by the Animal Ethics Committee of Tianjin University of Traditional Chinese Medicine (permit number: TCM-LAEC2019022, Tianjin, China),. Male Sprague-Dawley rats (240–260 g) were fed in the animal laboratory of the Tianjin University of Traditional Chinese Medicine under the standard conditions. These rats were allowed free to get standard laboratory food and water and conformed for 1 week until 12 h before experiment. These rats (n = 10) were fasted, although they were still given water for 12 h, before the oral administration of lotus leaf extract. […] The plasma samples were centrifuged in 10 min at 7000 rpm and kept at −20°C until analyzed.
All of the pharmacokinetic parameters were calculated by one compartment model with DAS 1.0 software (Medical College of Wannan). The maximum drug concentration (Cmax) and the time to reach Cmax (Tmax) were acquired from observed concentration–time profile for oral administration in plasma. All data were shown as mean ± SD.

[2] = Stability of stock and working solutions; assay type: physicochemical; conditions: working solution, n = 6
Description: (§1) The stabilities (including auto-sampler, freeze–thaw cycles, and short-time and long-term stability) of all analytes were obtained by testing QC samples of four concentrations. Moreover, the stabilities for stock and working solution were assessed with mixed standard substance (100 ng·ml^−1) and the QC sample solutions of four concentration levels, respectively. These solutions were achieved by diluting stock solutions kept at 4°C for 2 weeks. For IS, the evaluated procedures of two stabilities were same as the five alkaloids.

[3] = Stability of analytes in rat plasma QC samples (auto-sampler, freeze-thaw, short-time, long-term); assay type: in vitro ADME
Description: as §1

[4] = male, Sprague-Dawley, rat, in vivo, po, 2.4 g/kg, rat plasma, oral lotus leaf extract 2.4 g·kg^−1, n = 10, mean ± SD, read-out: MRT(0–tn)
[5] = male, Sprague-Dawley, rat, in vivo, po, 2.4 g/kg, rat plasma, oral lotus leaf extract 2.4 g·kg^−1, n = 10, mean ± SD, read-out: MRT(0–∞)
[6] = male, Sprague-Dawley, rat, in vivo, po, 2.4 g/kg, rat plasma, oral lotus leaf extract 2.4 g·kg^−1, n = 10, mean ± SD, read-out: Tmax
[7] = male, Sprague-Dawley, rat, in vivo, po, 2.4 g/kg, rat plasma, oral lotus leaf extract 2.4 g·kg^−1, n = 10, one compartment model, mean ± SD, read-out: T1/2 (converted)
[8] = rat, oral lotus leaf extract 2.4 g·kg^−1
[9] = concentration LLOQ, from stock kept at 4°C for 2 weeks
[10] = rat plasma QC, autosampler 24 h, LLOQ, n = 6
[11] = rat plasma QC, freeze thaw cycles, LLOQ, n = 6
[12] = rat plasma QC, room temperature 24 h, LLOQ, n = 6
[13] = rat plasma QC, −80°C 1 month, LLOQ, n = 6
[14] = rat plasma, oral lotus leaf extract 2.4 g·kg^−1, n = 10, mean ± SD
[15] = male, Sprague-Dawley, rat, in vivo, po, 2.4 g/kg

SMILES: O=C1c2ccccc2-c2c3c(cc4ccnc1c24)OCO3 [Liriodenine, liriodenine]
- AUC ([1]; male, Sprague-Dawley, rat, in vivo, po, 2.4 g/kg, rat plasma, oral lotus leaf extract 2.4 g·kg^−1, n = 10, mean ± SD, read-out: AUC(0–tn)): 415 ± 200 ng·h/mL
- AUC(0-inf) ([1]; male, Sprague-Dawley, rat, in vivo, po, 2.4 g/kg, rat plasma, oral lotus leaf extract 2.4 g·kg^−1, n = 10, mean ± SD, read-out: AUC(0–∞)): 429 ± 199 ng·h/mL
- Cmax ([1]; male, Sprague-Dawley, rat, in vivo, po, 2.4 g/kg, rat plasma, oral lotus leaf extract 2.4 g·kg^−1, n = 10, mean ± SD, read-out: Cmax): 54.7 ± 31.8 ng/mL
- MRT [1, 4]: 7.11 ± 1.21 h
- MRT inf [1, 5]: 8.17 ± 1.86 h
- Tmax [1, 6]: 5.7 ± 2.83 h
- half-life [1, 7]: 3.77 ± 1.15 h
- Absorption after orally administrating the lotus leaf extract (in words) [1, 8]: slow absorption
- Remain, working solution ([2]; 1 ng/ml): 96.9%
- Remain, working solution ([2]; 40 ng/ml): 91.7%
- Remain, working solution ([2]; 200 ng/ml): 112%
- Remain, working solution [2, 9]: 105%
- Remain, autosampler for 24 h ([3]; rat plasma QC, autosampler 24 h, 1 ng/ml, n = 6): 86.0%
- Remain, autosampler for 24 h ([3]; rat plasma QC, autosampler 24 h, 40 ng/ml, n = 6): 105%
- Remain, autosampler for 24 h ([3]; rat plasma QC, autosampler 24 h, 200 ng/ml, n = 6): 96.8%
- Remain, autosampler for 24 h [3, 10]: 95.7%
- Remain, freeze thaw cycles ([3]; rat plasma QC, freeze thaw cycles, 1 ng/ml, n = 6): 86.9%
- Remain, freeze thaw cycles ([3]; rat plasma QC, freeze thaw cycles, 40 ng/ml, n = 6): 92.7%
- Remain, freeze thaw cycles ([3]; rat plasma QC, freeze thaw cycles, 200 ng/ml, n = 6): 90.5%
- Remain, freeze thaw cycles [3, 11]: 91.7%
- Remain, room temperature for 24 h ([3]; rat plasma QC, room temperature 24 h, 1 ng/ml, n = 6): 87.9%
- Remain, room temperature for 24 h ([3]; rat plasma QC, room temperature 24 h, 40 ng/ml, n = 6): 96.9%
- Remain, room temperature for 24 h ([3]; rat plasma QC, room temperature 24 h, 200 ng/ml, n = 6): 102%
- Remain, room temperature for 24 h [3, 12]: 92.9%
- Remain, −80°C for 1 month ([3]; rat plasma QC, −80°C 1 month, 1 ng/ml, n = 6): 107%
- Remain, −80°C for 1 month ([3]; rat plasma QC, −80°C 1 month, 40 ng/ml, n = 6): 105%
- Remain, −80°C for 1 month ([3]; rat plasma QC, −80°C 1 month, 200 ng/ml, n = 6): 104%
- Remain, −80°C for 1 month [3, 13]: 98.9%

SMILES: COc1cc2c3c(c1OC)-c1ccccc1C[C@H]3N(C)CC2 [Nunciferine, nunciferine]
- MRT [1, 4]: 5.49 ± 0.96 h
- MRT inf [1, 5]: 6.14 ± 1.47 h
- Tmax [1, 6]: 3.5 ± 1.84 h
- half-life [1, 7]: 6.18 ± 3.1 h
- AUCs(0–24 h) ([1]; rat plasma, oral lotus leaf extract 2.4 g·kg^−1): 2070 ± 919 ng·h/mL
- AUC(0–tn) [1, 14]: 2069 ± 919 ng·h/mL
- AUC(0–∞) [1, 14]: 2142 ± 961 ng·h/mL
- Cmax [1, 14]: 317.58 ± 175.05 ng/mL
- Cmax ([1]; rat plasma, oral lotus leaf extract 2.4 g·kg^−1, n = 10, mean ± SD, listed as nunciferine): 317.6 ± 175.1 ng/mL
- Plasma exposure (in words) [1, 8]: abundant plasma exposure
- Remain, working solution ([2]; 2 ng/ml): 92.5%
- Remain, working solution ([2]; 100 ng/ml): 98.7%
- Remain, working solution ([2]; 500 ng/ml): 108%
- Remain, working solution [2, 9]: 101%
- Remain, autosampler for 24 h ([3]; rat plasma QC, autosampler 24 h, 2 ng/ml, n = 6): 89.7%
- Remain, autosampler for 24 h ([3]; rat plasma QC, autosampler 24 h, 100 ng/ml, n = 6): 98.4%
- Remain, autosampler for 24 h ([3]; rat plasma QC, autosampler 24 h, 500 ng/ml, n = 6): 85.4%
- Remain, autosampler for 24 h [3, 10]: 87.5%
- Remain, freeze thaw cycles ([3]; rat plasma QC, freeze thaw cycles, 2 ng/ml, n = 6): 92.5%
- Remain, freeze thaw cycles ([3]; rat plasma QC, freeze thaw cycles, 100 ng/ml, n = 6): 92.0%
- Remain, freeze thaw cycles ([3]; rat plasma QC, freeze thaw cycles, 500 ng/ml, n = 6): 85.3%
- Remain, freeze thaw cycles [3, 11]: 95.9%
- Remain, room temperature for 24 h ([3]; rat plasma QC, room temperature 24 h, 2 ng/ml, n = 6): 96.5%
- Remain, room temperature for 24 h ([3]; rat plasma QC, room temperature 24 h, 100 ng/ml, n = 6): 109%
- Remain, room temperature for 24 h ([3]; rat plasma QC, room temperature 24 h, 500 ng/ml, n = 6): 89.3%
- Remain, room temperature for 24 h [3, 12]: 94.4%
- Remain, −80°C for 1 month ([3]; rat plasma QC, −80°C 1 month, 2 ng/ml, n = 6): 96.3%
- Remain, −80°C for 1 month ([3]; rat plasma QC, −80°C 1 month, 100 ng/ml, n = 6): 100%
- Remain, −80°C for 1 month ([3]; rat plasma QC, −80°C 1 month, 500 ng/ml, n = 6): 91.4%
- Remain, −80°C for 1 month [3, 13]: 99.4%

- AUC [1, 15]: 2030 ± 717 ng·h/mL
- AUC(0-inf) [1, 15]: 2100 ± 704 ng·h/mL
- Cmax [1, 15]: 210 ± 87 ng/mL
- MRT [1, 15]: 7.43 ± 1.18 h
- MRT inf [1, 15]: 8.36 ± 1.98 h
- Tmax [1, 15]: 4.9 ± 1.37 h
- half-life [1, 15]: 4.44 ± 1.88 h
- Absorption after orally administrating the lotus leaf extract (in words) ([1]; rat, in vivo, po): slow absorption
- Plasma exposure (in words) ([1]; rat, in vivo, po): abundant plasma exposure
- AUCs(0–24 h) ([1]; rat, in vivo, po, 2.4 g/kg): 2030 ± 716 ng·h/mL
- Remain, working solution ([2]; 2 ng/ml): 92.9%
- Remain, working solution ([2]; 100 ng/ml): 99.9%
- Remain, working solution ([2]; 500 ng/ml): 105%
- Remain, working solution [2, 9]: 99.3%
- Remain, freeze thaw cycles ([3]; rat, plasma): 81.9%
- Remain, freeze thaw cycles ([3]; rat, plasma, 2 ng/ml): 93.3%
- Remain, freeze thaw cycles ([3]; rat, plasma, 100 ng/ml): 85.5%
- Remain, freeze thaw cycles ([3]; rat, plasma, 500 ng/ml): 87.2%
- Remain, −80°C for 1 month ([3]; rat, plasma, 1 month): 99.2%
- Remain, −80°C for 1 month ([3]; rat, plasma, 1 month, 2 ng/ml): 99.0%
- Remain, −80°C for 1 month ([3]; rat, plasma, 1 month, 100 ng/ml): 93.9%
- Remain, −80°C for 1 month ([3]; rat, plasma, 1 month, 500 ng/ml): 90.4%
- Remain, autosampler for 24 h ([3]; rat, plasma, 24 h): 85.5%
- Remain, room temperature for 24 h ([3]; rat, plasma, 24 h): 89.2%
- Remain, autosampler for 24 h ([3]; rat, plasma, 24 h, 2 ng/ml): 88.3%
- Remain, room temperature for 24 h ([3]; rat, plasma, 24 h, 2 ng/ml): 106%
- Remain, autosampler for 24 h ([3]; rat, plasma, 24 h, 100 ng/ml): 92.6%
- Remain, room temperature for 24 h ([3]; rat, plasma, 24 h, 100 ng/ml): 98.9%
- Remain, autosampler for 24 h ([3]; rat, plasma, 24 h, 500 ng/ml): 87.5%
- Remain, room temperature for 24 h ([3]; rat, plasma, 24 h, 500 ng/ml): 87.1%
SMILES: COc1cc2c3c(c1OC)C1(C=CC(=O)C=C1)C[C@H]3N(C)CC2 [Pronuciferine, pronuciferine]
